# Structures can show the parent of a compound that is named as a salt.
# Test system: modified version of the GPR119 receptor (94% identity to human receptor)
# Experiment: cAMP production assay (LANCE cAMP kit, TR-FRET) in HEK-293 cells
# Type: cell-based
# Conditions: for cAMP production in HEK-293 cells: HEK-293 cells stably expressing modified GPR119, test compounds 0.2 nM to 10 μM, one-hour incubation; for Fold over baseline: increase in cAMP relative to basal levels, agonist activity if 1.5-fold or greater
# Method: The assay utilized HEK-293 cells that stably express a modified version of the GPR119 receptor (94% identity to human receptor), under the control of a CMV promoter containing a tet-on element for tetracycline-inducible expression. GPR119 agonist-induced cyclic AMP (cAMP) production was measured in this cell line using the LANCE cAMP kit (Perkin Elmer, Waltham, Mass.). To generate a working stock of cells for the assay, cells were treated overnight with 1 μg/mL doxycycline at 37° C. in the presence of 5% CO2 to induce receptor expression. Cells were then harvested by enzymatic dissociation with 0.05% trypsin, resuspended in freezing medium (DMEM growth medium with 10% each of fetal bovine serum and DMSO), aliquoted and frozen at −80° C. On the day of the assay, frozen cells were thawed, washed 1× in PBS and resuspended in Hank's buffered salt solution (HBSS) containing 5 mM HEPES, 0.1% BSA and Alexa Fluor 647-conjugated anti-cAMP antibody (diluted 1:100). The cell suspension was then transferred to a Proxiplate Plus white 384-well assay plate (Perkin-Elmer) at 2000 cells/well. Test compounds at final concentrations ranging from 0.2 nM to 10 μM were added to the assay plate, followed by a one-hour incubation at ambient temperature (volume=10 μL/well). DMSO concentration was held constant at 0.5%. After incubation with test compounds, 10 μL, of a detergent buffer containing a biotinylated cAMP/Europium-conjugated streptavidin complex (Europium-labeled cAMP tracer) were added to each well on the assay plate, followed by a 2-hour incubation at ambient temperature. During this incubation cAMP released from lysed cells competes with the Europium-labeled cAMP tracer for binding to the Alexa Fluor 647-conjugated antibody. […] Cellular cAMP levels were then determined by interpolation of raw signal data using a cAMP standard curve. Compounds were determined to have agonist activity if they stimulated a 1.5-fold or greater increase in cAMP relative to basal levels.
SMILES,cAMP production in HEK-293 cells [nmol],Fold over baseline
"CS(=O)(=O)c1ccc(N[C@H]2CCN(C3CCN(c4nc(-c5ccccc5)ns4)CC3)C2=O)c(F)c1 [Example 24, (S)-3-(2-fluoro-4-(methylsulfonyl)phenylamino)-1-(1-(3-phenyl-1,2,4-thiadiazol-5-yl)piperidin-4-yl)pyrrolidin-2-one]",9.7,2.6
"CS(=O)(=O)c1ccc(N[C@H]2CCN(C3CCN(c4nc([C@H](O)CO)ns4)CC3)C2=O)c(F)c1 [Example 25, (S)-1-(1-(3-((S)-1,2-dihydroxyethyl)-1,2,4-thiadiazol-5-yl)piperidin-4-yl)-3-(2-fluoro-4-(methylsulfonyl)phenylamino)pyrrolidin-2-one]",8.3,2.1
"CC(C)c1nsc(N2CCC(N3CC[C@H](N(C)c4cc(F)c(S(C)(=O)=O)cc4F)C3=O)CC2)n1 [Example 26, (S)-3-((2,5-Difluoro-4-(methylsulfonyl)phenyl)(methyl)amino)-1-(1-(3-isopropyl-1,2,4-thiadiazol-5-yl)piperidin-4-yl)pyrrolidin-2-one]",17.2,3.9
"CC(C)c1nsc(N2CCC(N3CCC[C@H](Nc4ccc(S(C)(=O)=O)cc4F)C3=O)CC2)n1 [Example 27, (S)-3-(2-fluoro-4-(methylsulfonyl)phenylamino)-1′-(3-isopropyl-1,2,4-thiadiazol-5-yl)-[1,4′-bipiperidin]-2-one]",17.5,3.0
"CC(C)Cc1nsc(N2CCC(N3CCC[C@H](Nc4ccc(S(C)(=O)=O)cc4F)C3=O)CC2)n1 [Example 28, (S)-3-(2-fluoro-4-(methylsulfonyl)phenylamino)-1′-(3-isobutyl-1,2,4-thiadiazol-5-yl)-[1,4′-bipiperidin]-2-one]",11.6,2.3
"CS(=O)(=O)c1ccc(N[C@H]2CCCN(C3CCN(c4nc(-c5ccccc5)ns4)CC3)C2=O)c(F)c1 [Example 29, (S)-3-(2-fluoro-4-(methylsulfonyl)phenylamino)-1′-(3-phenyl-1,2,4-thiadiazol-5-yl)-[1,4′-bipiperidin]-2-one]",7.3,2.2
"CC(C)(C)c1nsc(N2CCC(N3CCC[C@H](Nc4ccc(S(C)(=O)=O)cc4F)C3=O)CC2)n1 [Example 30, (S)-1′-(3-tert-butyl-1,2,4-thiadiazol-5-yl)-3-(2-fluoro-4-(methylsulfonyl)phenylamino)-[1,4′-bipiperidin]-2-one]",13.9,2.8
CC(C)(C)c1nsc(N2CCC(N3CCC[C@H](Nc4c(F)cc(S(C)(=O)=O)cc4F)C3=O)CC2)n1 [Example 31],7.6,1.9
"CSc1ccc(OC2CCN(C3CCN(c4nc(C(C)C)ns4)CC3)C2=O)cc1 (stereo not drawn) [Example 32, 1-(1-(3-Isopropyl-1,2,4-thiadiazol-5-yl)piperidin-4-yl)-3-(4-(methylthio)phenoxy)pyrrolidin-2-one]",17.8,2.7
"CC(C)c1nsc(N2CCC(N3CCC(Oc4ccc(Br)cc4F)C3=O)CC2)n1 (stereo not drawn) [Example 33, 3-(4-bromo-2-fluorophenoxy)-1-(1-(3-isopropyl-1,2,4-thiadiazol-5-yl)piperidin-4-yl)pyrrolidin-2-one]",16.9,2.7
"CC(C)(C)c1nsc(N2CCC(N3CC[C@H](Oc4cc(F)c(S(C)(=O)=O)cc4F)C3=O)CC2)n1 [Example 34, (S)-1-(1-(3-tert-butyl-1,2,4-thiadiazol-5-yl)piperidin-4-yl)-3-(2,5-difluoro-4-(methylsulfonyl)phenoxy)pyrrolidin-2-one]",29.2,4.5
"CC(C)(C)c1nsc(N2CCC(N3CC[C@H](Oc4ccc(S(C)(=O)=O)cc4F)C3=O)CC2)n1 [Example 35, (S)-1-(1-(3-tert-butyl-1,2,4-thiadiazol-5-yl)piperidin-4-yl)-3-(2-fluoro-4-(methylsulfonyl)phenoxy)pyrrolidin-2-one]",26.1,3.7
"CC(C)(C)c1nsc(N2CCC(N3CC[C@H](Oc4c(F)cc(S(C)(=O)=O)cc4F)C3=O)CC2)n1 [Example 36, (S)-1-(1-(3-tert-butyl-1,2,4-thiadiazol-5-yl)piperidin-4-yl)-3-(2,6-difluoro-4-(methylsulfonyl)phenoxy) pyrrolidin-2-one]",23.2,4.1
"CC(C)(C)c1nsc(N2CCC(N3CC[C@H](Nc4ccc(S(C)(=O)=O)cc4F)C3=O)CC2)n1 [Example 37, (S)-1-(1-(3-tert-butyl-1,2,4-thiadiazol-5-yl)piperidin-4-yl)-3-(2-fluoro-4-(methylsulfonyl)phenyl-amino)pyrrolidin-2-one]",20.9,3.2
"COC(C)(C)c1nsc(N2CCC(N3CC[C@H](Oc4ccc(S(C)(=O)=O)cc4F)C3=O)CC2)n1 [Example 38, (S)-3-(2-fluoro-4-(methylsulfonyl)phenoxy)-1-(1-(3-(2-methoxypropan-2-yl)-1,2,4-thiadiazol-5-yl)piperidin-4-yl)pyrrolidin-2-one]",42.1,6.6
"COC(C)(C)c1nsc(N2CCC(N3CC[C@H](Oc4cc(F)c(S(C)(=O)=O)cc4F)C3=O)CC2)n1 [Example 39, (S)-3-(2,5-difluoro-4-(methylsulfonyl)phenoxy)-1-(1-(3-(2-methoxypropan-2-yl)-1,2,4-thiadiazol-5-yl)piperidin-4-yl)pyrrolidin-2-one]",22.4,3.7
"COC(C)(C)c1nsc(N2CCC(N3CC[C@H](Oc4c(F)cc(S(C)(=O)=O)cc4F)C3=O)CC2)n1 [Example 40, (S)-3-(2,6-difluoro-4-(methylsulfonyl)phenoxy)-1-(1-(3-(2-methoxypropan-2-yl)-1,2,4-thiadiazol-5-yl)piperidin-4-yl)pyrrolidin-2-one]",21.1,3.9
"COC(C)(C)c1nsc(N2CCC(N3CC[C@H](Nc4ccc(S(C)(=O)=O)cc4F)C3=O)CC2)n1 [Example 41, (S)-3-(2-fluoro-4-(methylsulfonyl)phenyl-amino)-1-(1-(3-(2-methoxypropan-2-yl)-1,2,4-thiadiazol-5-yl)piperidin-4-yl)pyrrolidin-2-one]",8.1,2.0
"CS(=O)(=O)c1ccc(O[C@H]2CCN(C3CCN(c4nc(-n5cccn5)ns4)CC3)C2=O)c(F)c1 [Example 42, (S)-1-(1-(3-(1H-pyrazol-1-yl)-1,2,4-thiadiazol-5-yl)piperidin-4-yl)-3-(2-fluoro-4-(methylsulfonyl)phenoxy)pyrrolidin-2-one]",12.0,2.5
"Cc1nnc(-c2ccc(O[C@H]3CCN(C4CCN(c5nc(C(C)C)ns5)CC4)C3=O)c(F)c2)o1 [Example 43, (S)-3-(2-fluoro-4-(5-methyl-1,3,4-oxadiazol-2-yl)phenoxy)-1-(1-(3-isopropyl-1,2,4-thiadiazol-5-yl)piperidin-4-yl)pyrrolidin-2-one]",29.4,7.4
"CC(C)c1nsc(N2CCC(N3CCC(Oc4ccc(S(=O)(=O)CC5CC5)cc4F)C3=O)CC2)n1 (stereo not drawn) [Example 44, 3-(4-(Cyclopropylmethylsulfonyl)-2-fluorophenoxy)-1-(1-(3-isopropyl-1,2,4-thiadiazol-5-yl)piperidin-4-yl)pyrrolidin-2-one trifluoroacetate]",23.8,3.4
"CC(C)c1nsc(N2CCC(N3CCC(Oc4ccc(S(=O)(=O)C(C)C)cc4F)C3=O)CC2)n1 (stereo not drawn) [Example 45, 3-(2-fluoro-4-(isopropylsulfonyl)phenoxy)-1-(1-(3-isopropyl-1,2,4-thiadiazol-5-yl)piperidin-4-yl)pyrrolidin-2-one]",17.8,3.5
"CC(C)c1nsc(N2CCC(N3CCC(Oc4ccc(S(=O)(=O)C5CC5)cc4F)C3=O)CC2)n1 (stereo not drawn) [Example 46, 3-(4-(Cyclopropylsulfonyl)-2-fluorophenoxy)-1-(1-(3-isopropyl-1,2,4-thiadiazol-5-yl)piperidin-4-yl)pyrrolidin-2-one trifluoroacetate]",20.7,4.7
"CS(=O)(=O)c1cc(F)c(OC2CCN(C3CCN(c4nc(C5CC5)ns4)CC3)C2=O)cc1F.O=C(O)C(F)(F)F (stereo not drawn) [Example 47, 1-(1-(3-Cyclopropyl-1,2,4-thiadiazol-5-yl)piperidin-4-yl)-3-(2,5-difluoro-4-(methylsulfonyl)phenoxy)pyrrolidin-2-one trifluoroacetate]",9.8,2.7
